Values of other authors in patent US20060134226A1, “Compositions useful to treat ocular neovascular diseases and macular degeneration” (priority 2004, published 2006).
Each block holds one molecule with its values, some of them ahead of it.

Legend:
[1] = in vivo
[2] = oral dose of 600 mg tid, long periods of time, patients with chronic bronchitis and emphysema
[3] = consumed daily
[4] = about 200 mg dosage of zinc per day
[5] = test system: macular degeneration changes; conditions: 80 mg of zinc, versus placebo
[6] = in vivo; remark: listed apart in the source
[7] = not given; remark: listed apart in the source

Molecule: CC(=O)Oc1c(C)c(C)c2c(c1C)CC[C@@](C)(CCC[C@H](C)CCC[C@H](C)CCCC(C)C)O2 (racemic) [dl-alpha tocopheryl acetate]
- level at which no adverse effects have been observed [1]: ≤ 800 mg

- dose excreted in the urine (after 24 hours): approximately 22%
- mean plasma half-life (humans): about 1.35 hours
- absorption of radiolabelled NAC (humans, one hour after administration): rapidly absorbed
Molecule: CC(=O)N[C@@H](CS)C(=O)O [NAC, N-acetylcysteine]
- tolerability [2]: well tolerated

Molecule: O=C1O[C@H]([C@@H](O)CO)C(O)=C1O [vitamin C, ascorbic acid]
- daily intake without any known adverse effects [3]: ≥ 1,000 mg

Molecule: [Zn] [zinc]
- side effects [4]: potential side effects such as anemia
- retarding macular degeneration changes [5]: significantly better than placebo

Molecule: beta carotene [beta-carotene]
- efficiency of conversion to vitamin A in the body [6]: approximately 50%
- risk among male smokers ([7]; 20 mg/day of beta-carotene): increased risk of lung cancer
- risk in men with previous myocardial infarction ([7]; 20 mg/day of beta-carotene): increased risk of fatal coronary heart attacks
- dosage level with no observed adverse effects ([7]; healthy, non-smokers): ≤ 25 mg per day
